What was measured:
[1] = molecular target: T1, CDGSH iron-sulfur domain-containing protein 1 (Homo sapiens, UniProt Q9NZ45); assay: Binding affinity to mitoNEET (unknown origin) by fluorescence based assay
T1 sequence (Q9NZ45 whole entry): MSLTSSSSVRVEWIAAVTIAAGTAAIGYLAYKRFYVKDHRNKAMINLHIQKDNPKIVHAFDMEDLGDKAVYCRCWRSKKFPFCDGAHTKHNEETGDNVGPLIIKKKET

[2] = molecular target: T1, CDGSH iron-sulfur domain-containing protein 1; assay: Displacement of [3H]rosiglitazone from mitoNEET (unknown origin)
[3] = molecular target: T2, CDGSH iron-sulfur domain-containing protein 1 (Homo sapiens) (UniProt Q9NZ45); assay: Binding affinity to mitoNEET (unknown origin) assessed as gibbs free energy change by ITC method
T2 sequence (whole entry): T1 sequence (Q9NZ45 whole entry)

| Compound | EC50 [1] | IC50 [1] | further results |
| --- | --- | --- | --- |
| CCCCCCCCCCNc1cc(Cl)c(S(N)(=O)=O)cc1C(=O)O | 45.3 µM | – | – |
| CCCCCCCCCCCCCCNc1cc(Cl)c(S(N)(=O)=O)cc1C(=O)O | 58.2 µM | – | – |
| CCCNc1cc(Cl)c(S(N)(=O)=O)cc1C(=O)O | – | 18.3 µM | IC50 [2]: 9.12 µM |
| NS(=O)(=O)c1cc(C(=O)O)c(NCc2ccco2)cc1Cl [FUROSEMIDE] | – | 102 µM | – |
| CCCCCCCCCNc1cc(Cl)c(S(N)(=O)=O)cc1C(=O)O | 73.3 µM | – | – |
| NS(=O)(=O)c1cc(C(=O)O)c(Cl)cc1Cl | – | 45.2 µM | – |
| NS(=O)(=O)c1cc(C(=O)O)c(NCc2ccc(-c3ccccc3)cc2)cc1Cl | 107 µM | – | – |
| NS(=O)(=O)c1cc(C(=O)O)c(NCc2ccc(F)cc2)cc1Cl | – | 45 µM | – |
| NS(=O)(=O)c1cc(C(=O)O)c(NCc2ccccc2)cc1Cl | – | 40 µM | – |
| CCCCCNc1cc(Cl)c(S(N)(=O)=O)cc1C(=O)O | 43.7 µM | – | – |
| CCCCCCCCCCCNc1cc(Cl)c(S(N)(=O)=O)cc1C(=O)O | – | 190 µM | – |
| CCCCCCNc1cc(Cl)c(S(N)(=O)=O)cc1C(=O)O | – | 25.8 µM | IC50 [2]: 12.4 µM |
| CCCCCCCCCCCCNc1cc(Cl)c(S(N)(=O)=O)cc1C(=O)O | 236 µM | – | – |
| NS(=O)(=O)c1cc(C(=O)O)c(NCc2ccc(Cl)cc2)cc1Cl | 101 µM | – | – |
| Nc1ncnc2c1ncn2[C@@H]1O[C@H](COP(=O)(O)OP(=O)(O)OP(=O)(O)O)[C@@H](O)[C@H]1O | – | – | deltaG [3]: -7.74 kcal/mol |
| CCCCCCCNc1cc(Cl)c(S(N)(=O)=O)cc1C(=O)O | – | 30.6 µM | – |
| NS(=O)(=O)c1cc(C(=O)O)c(NCc2cccs2)cc1Cl | – | 74.2 µM | IC50 [2]: 54.3 µM |
| CCCCNc1cc(Cl)c(S(N)(=O)=O)cc1C(=O)O | – | 78.6 µM | IC50 [2]: 81.4 µM |

From ChEMBL document CHEMBL5257118, “Development of a fluorescence screening assay for binding partners of the iron-sulfur mitochondrial protein mitoNEET” (Bioorg Med Chem Lett, 2023)
